Test results reported in US20260146046A1, “BICYCLIC FERROPORTIN INHIBITORS” (Vifor (International) AG, priority 2022, published 2026).
Where a name gives a salt, the structure may show the parent alone.

Target: T1, ferroportin (Fpn) (Mus musculus, UniProt Q9JHI9)
T1 construct: endogenous in cells; host or cells: J774 mouse macrophage cell line, induced with Fe(III)NTA
T1 sequence (Q9JHI9 1-570): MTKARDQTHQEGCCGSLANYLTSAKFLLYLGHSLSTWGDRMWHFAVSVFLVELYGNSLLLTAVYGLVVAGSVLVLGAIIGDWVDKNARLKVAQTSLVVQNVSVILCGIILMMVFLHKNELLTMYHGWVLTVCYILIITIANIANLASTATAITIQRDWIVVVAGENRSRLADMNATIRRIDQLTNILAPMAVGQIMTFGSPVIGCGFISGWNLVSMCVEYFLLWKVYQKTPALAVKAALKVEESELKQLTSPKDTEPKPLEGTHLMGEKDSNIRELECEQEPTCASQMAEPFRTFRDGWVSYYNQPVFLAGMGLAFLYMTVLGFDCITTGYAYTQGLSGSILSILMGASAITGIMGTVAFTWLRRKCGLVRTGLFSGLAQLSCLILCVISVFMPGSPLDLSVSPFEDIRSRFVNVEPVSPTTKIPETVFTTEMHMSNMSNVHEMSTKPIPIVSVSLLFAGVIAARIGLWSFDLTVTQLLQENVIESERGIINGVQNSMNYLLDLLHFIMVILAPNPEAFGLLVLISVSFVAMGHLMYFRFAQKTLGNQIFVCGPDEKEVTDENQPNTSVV
Test: Hepcidin Internalization Assay (J774)
Type: cell-based
Details: J774 cells, 25 nM TMR-hepcidin, 2 hours; average of multiple measurements; read-out: Average (AVE) IC50 of Fpn inhibitors in the hepcidin internalization assay
Description: This cellular assay allows quantification of the binding of hepcidin to ferroportin (Fpn) through microscopic detection of internalization of a fluorescently labeled hepcidin into J774 cells. […] Binding of hepcidin to Fpn triggers internalization and degradation of both hepcidin and Fpn. […] Therefore, microscopic detection of cell-associated TMR fluorescence is a measure of hepcidin binding to Fpn and internalization of hepcidin and Fpn. If TMR-hepcidin is prevented from binding to Fpn, cellular TMR fluorescence remains low (Durrenberger et al, 2013). The effect of small molecular weight Fpn inhibitor compounds in this assay was evaluated in vitro as described below. […] Cat. 655090) and grown at 37° C. with 5% CO2. After overnight incubation, cells were washed 3 times with pre-warmed DMEM w/o phenol red, 30 μl/well of DMEM w/o phenol red was added after the final wash and 10 μl/well of dilution series of test compounds were added in triplicates. […] Cells were incubated in a total volume of 50 μl at 37° C. with 5% CO2 for 2 hours, then Hoechst 33342 dye was added to a final concentration of 0.5 μg/ml to stain nuclei and further incubated for 10 min. at 37° C. with 5% CO2. […] After removal of the paraformaldehyde solution, cells were washed 3 times with PBS leaving 100 μl per well and the plates were sealed with foil plate seal. […] The acquired image data was analysed with the […] analysis software. […] IC50 values were calculated with the Sum(Mean) raw data using “log(inhibitor) vs. response” curve fitting of Prism 5 software (GraphPad Software Inc., version 5.02). For each data set the fit of the “log(inhibitor) vs. response (three parameters)” model was compared to the fit of the “log(inhibitor) vs. response-Variable slope (four parameters)” model and the IC50 data of the preferred model was used.

COCCn1c(CCNCCc2nc3c(NCc4ncccc4F)nccc3o2)nc2ccccc21 [Example Compound No. 1, N-((3-fluoropyridin-2-yl)methyl)-2-(2-((2-(1-(2-methoxyethyl)-1H-benzo[d]imidazol-2-yl)ethyl)amino)ethyl)oxazolo[4,5-c]pyridin-4-amine]
IC50: 9 nM

Fc1cccnc1CNc1nccc2oc(CCNCCc3nc4ccccc4n3CC3CC3)nc12 [Example Compound No. 2, 2-(2-((2-(1-(cyclopropylmethyl)-1H-benzo[d]imidazol-2-yl)ethyl)amino)ethyl)-N-((3-fluoropyridin-2-yl)methyl)oxazolo[4,5-c]pyridin-4-amine]
IC50: 15 nM

COCCOCCn1c(CCNCCc2nc3c(NCc4ncccc4F)nccc3o2)nc2ccccc21 [Example Compound No. 3, N-((3-fluoropyridin-2-yl)methyl)-2-(2-((2-(1-(2-(2-methoxyethoxy)ethyl)-1H-benzo[d]imidazol-2-yl)ethyl)amino)ethyl)oxazolo[4,5-c]pyridin-4-amine]
IC50: 9 nM

CC(C)OCCn1c(CCNCCc2nc3c(NCc4ncccc4F)nccc3o2)nc2ccccc21 [Example Compound No. 4, N-((3-fluoropyridin-2-yl)methyl)-2-(2-((2-(1-(2-isopropoxyethyl)-1H-benzo[d]imidazol-2-yl)ethyl)amino)ethyl)oxazolo[4,5-c]pyridin-4-amine]
IC50: 4 nM

COCCn1c(CCN2CC(c3nc4c(NCc5ncccc5F)nccc4o3)C2)nc2ccccc21 [Example Compound No. 5, N-((3-fluoropyridin-2-yl)methyl)-2-(1-(2-(1-(2-methoxyethyl)-1H-benzo[d]imidazol-2-yl)ethyl)azetidin-3-yl)oxazolo[4,5-c]pyridin-4-amine]
IC50: 7 nM

COCCOCCn1c(CCN2CC(c3nc4c(NCc5ncccc5F)nccc4o3)C2)nc2ccccc21 [Example Compound No. 6, N-((3-fluoropyridin-2-yl)methyl)-2-(1-(2-(1-(2-(2-methoxyethoxy)ethyl)-1H-benzo[d]imidazol-2-yl)ethyl)azetidin-3-yl)oxazolo[4,5-c]pyridin-4-amine]
IC50: 11 nM

COCCn1c(CCNCCc2nc3c(NCc4ncccc4F)nccc3o2)nc2cc3c(cc21)OCCO3 [Example Compound No. 7, N-((3-fluoropyridin-2-yl)methyl)-2-(2-((2-(1-(2-methoxyethyl)-6,7-dihydro-1H-[1,4]dioxino-[2′,3′:4,5]benzo[1,2-d]imidazol-2-yl)ethyl)amino)ethyl)oxazolo[4,5-c]pyridin-4-amine]
IC50: 83 nM

Fc1cccnc1CNc1nccc2oc(CCNCCc3nc4ccccc4n3CCN3CCOCC3)nc12 [Example Compound No. 8, N-((3-fluoropyridin-2-yl)methyl)-2-(2-((2-(1-(2-morpholinoethyl)-1H-benzo[d]imidazol-2-yl)ethyl)amino)ethyl)oxazolo[4,5-c]pyridin-4-amine]
IC50: 7 nM

Fc1cccnc1CNc1nccc2oc(CCNCCc3nc4cc5c(cc4n3CCN3CCOCC3)OCCO5)nc12 [Example Compound No. 9, N-((3-fluoropyridin-2-yl)methyl)-2-(2-((2-(1-(2-morpholinoethyl)-6,7-dihydro-1H-[1,4]dioxino[2′,3′:4,5]benzo[1,2-d]imidazol-2-yl)ethyl)amino)ethyl)oxazolo[4,5-c]pyridin-4-amine]
IC50: 827 nM

Fc1cccnc1CNc1nccc2oc(CCNCCc3nc4ccccc4n3Cc3ccccc3)nc12 [Example Compound No. 10, 2-(2-((2-(1-benzyl-1H-benzo[d]imidazol-2-yl)ethyl)amino)ethyl)-N-((3-fluoropyridin-2-yl)methyl)oxazolo[4,5-c]pyridin-4-amine]
IC50: 8 nM

COc1cccc(Cn2c(CCNCCc3nc4c(NCc5ncccc5F)nccc4o3)nc3ccccc32)c1 [Example Compound No. 11, N-((3-fluoropyridin-2-yl)methyl)-2-(2-((2-(1-(3-methoxybenzyl)-1H-benzo[d]-imidazol-2-yl)ethyl)amino)ethyl)oxazolo[4,5-c]pyridin-4-amine]
IC50: 5 nM

Fc1cccnc1CNc1nccc2oc(CCNCCc3nc4ccccc4n3Cc3cccc(Cl)c3)nc12 [Example Compound No. 12, 2-(2-((2-(1-(3-chlorobenzyl)-1H-benzo[d]imidazol-2-yl)ethyl)amino)ethyl)-N-((3-fluoropyridin-2-yl)methyl)oxazolo[4,5-c]pyridin-4-amine]
IC50: 28 nM

Fc1cccnc1CNc1nccc2oc(CCNCCc3nc4cc5c(cc4n3CC3CC3)OCCO5)nc12 [Example Compound No. 13, 2-(2-((2-(1-(cyclopropylmethyl)-6,7-dihydro-1H-[1,4]dioxino[2′,3′:4,5]benzo[1,2-d]-imidazol-2-yl)ethyl)amino)ethyl)-N-((3-fluoropyridin-2-yl)methyl)oxazolo[4,5-c]pyridin-4-amine]
IC50: 5 nM

CN(C)CCn1c(CCNCCc2nc3c(NCc4ncccc4F)nccc3o2)nc2cc3c(cc21)OCCO3 [Example Compound No. 14, 2-(2-((2-(1-(2-(dimethylamino)ethyl)-6,7-dihydro-1H-[1,4]dioxino[2′,3′:4,5]benzo[1,2-d]imidazol-2-yl)ethyl)amino)ethyl)-N-((3-fluoropyridin-2-yl)methyl)oxazolo[4,5-c]pyridin-4-amine]
IC50: 810 nM

Fc1cccnc1CNc1nccc2oc(CCNCCc3nc4ccccc4n3Cc3ccccn3)nc12 [Example Compound No. 15, N-((3-fluoropyridin-2-yl)methyl)-2-(2-((2-(1-(pyridin-2-ylmethyl)-1H-benzo[d]imidazol-2-yl)ethyl)amino)ethyl)oxazolo[4,5-c]pyridin-4-amine]
IC50: 9500 nM

Fc1cccnc1CNc1nccc2oc(CCNCCc3nc4ccccc4n3CCc3ccccc3)nc12 [Example Compound No. 16, N-((3-fluoropyridin-2-yl)methyl)-2-(2-((2-(1-phenethyl-1H-benzo[d]imidazol-2-yl)ethyl)amino)ethyl)oxazolo[4,5-c]pyridin-4-amine]
IC50: 40200 nM

Fc1cccnc1CNc1nccc2oc(CCNCCc3nc4ccccc4n3-c3ccccc3)nc12 [Example Compound No. 17, N-((3-fluoropyridin-2-yl)methyl)-2-(2-((2-(1-phenyl-1H-benzo[d]imidazol-2-yl)ethyl)amino)ethyl)oxazolo[4,5-c]pyridin-4-amine]
IC50: 25 nM

CN1CCN(CCn2c(CCNCCc3nc4c(NCc5ncccc5F)nccc4o3)nc3cc4c(cc32)OCCO4)CC1 [Example Compound No. 18, N-((3-fluoropyridin-2-yl)methyl)-2-(2-((2-(1-(2-(4-methylpiperazin-1-yl)ethyl)-6,7-dihydro-1H-[1,4]dioxino[2′,3′:4,5]benzo[1,2-d]imidazol-2-yl)ethyl)amino)ethyl)oxazolo[4,5-c]pyridin-4-amine]
IC50: 20000 nM

CCn1c(CCNCCc2nc3c(NCc4ncccc4F)nccc3o2)nc2ccccc21 [Example Compound No. 19, 2-(2-((2-(1-ethyl-1H-benzo[d]imidazol-2-yl)ethyl)amino)ethyl)-N-((3-fluoropyridin-2-yl)methyl)oxazolo[4,5-c]pyridin-4-amine]
IC50: 18 nM

CN(C)CCn1c(CCNCCc2nc3c(NCc4ncccc4F)nccc3o2)nc2ccccc21 [Example Compound No. 20, 2-(2-((2-(1-(2-(dimethylamino)ethyl)-1H-benzo[d]imidazol-2-yl)ethyl)amino)ethyl)-N-((3-fluoropyridin-2-yl)methyl)oxazolo[4,5-c]pyridin-4-amine]
IC50: 20000 nM

CCn1c(CCNCCc2nc3c(NCc4ncccc4F)nccc3o2)nc2cc3c(cc21)OCCO3 [Example Compound No. 21, 2-(2-((2-(1-ethyl-6,7-dihydro-1H-[1,4]dioxino[2′,3′:4,5]benzo[1,2-d]imidazol-2-yl)ethyl)amino)ethyl)-N-((3-fluoropyridin-2-yl)methyl)oxazolo[4,5-c]pyridin-4-amine formate]
IC50: 31 nM
